Test results published in ChEMBL document CHEMBL1154445, “Identification of "toxicophoric" features for predicting drug-induced QT interval prolongation” (Eur J Med Chem, 2008).

How the values were obtained:
Cavia porcellus [1] = assay: Cardiotoxicity in Dunkin-Hartley guinea pig assessed as maximal QTc prolongation time at 10 mg/kg, iv administered as 3 fold cumulative doses measured every 10 seconds at end of every 20 mins follow up period of individual dose by ECG; format: toxicity, organism-based; set-up: dose 10 mg/kg, route intravenous; conditions: in vivo
[2] = molecular target: Voltage-gated inwardly rectifying potassium channel KCNH2 (Homo sapiens, UniProt Q12809); assay: Inhibition of human ERG channel in HEK293 cells by voltage-clamp method; conditions: for pIC50(uM): human
Cavia porcellus [3] = assay: Cardiotoxicity in iv dosed Dunkin-Hartley guinea pig assessed as drug level required to evoke 50 ms QTc prolongation administered as 3 fold cumulative doses measured every 10 seconds at end of every 20 mins follow up period of individual dose by ECG
Cavia porcellus [4] = assay: Toxicity to Dunkin-Hartley guinea pig assessed as marked bradyarrhythmia and death at 10 mg/kg, iv; format: organism-based; set-up: dose 10 mg/kg, route intravenous; conditions: in vivo
Cavia porcellus [5] = assay: Cardiotoxicity in Dunkin-Hartley guinea pig assessed as maximal QTc prolongation time at 3 mg/kg, iv administered as 3 fold cumulative doses measured every 10 seconds at end of every 20 mins follow up period of individual dose by ECG; format: toxicity, organism-based; set-up: dose 3 mg/kg, route intravenous; conditions: in vivo

Chain of Voltage-gated inwardly rectifying potassium channel KCNH2 (Q12809 whole entry): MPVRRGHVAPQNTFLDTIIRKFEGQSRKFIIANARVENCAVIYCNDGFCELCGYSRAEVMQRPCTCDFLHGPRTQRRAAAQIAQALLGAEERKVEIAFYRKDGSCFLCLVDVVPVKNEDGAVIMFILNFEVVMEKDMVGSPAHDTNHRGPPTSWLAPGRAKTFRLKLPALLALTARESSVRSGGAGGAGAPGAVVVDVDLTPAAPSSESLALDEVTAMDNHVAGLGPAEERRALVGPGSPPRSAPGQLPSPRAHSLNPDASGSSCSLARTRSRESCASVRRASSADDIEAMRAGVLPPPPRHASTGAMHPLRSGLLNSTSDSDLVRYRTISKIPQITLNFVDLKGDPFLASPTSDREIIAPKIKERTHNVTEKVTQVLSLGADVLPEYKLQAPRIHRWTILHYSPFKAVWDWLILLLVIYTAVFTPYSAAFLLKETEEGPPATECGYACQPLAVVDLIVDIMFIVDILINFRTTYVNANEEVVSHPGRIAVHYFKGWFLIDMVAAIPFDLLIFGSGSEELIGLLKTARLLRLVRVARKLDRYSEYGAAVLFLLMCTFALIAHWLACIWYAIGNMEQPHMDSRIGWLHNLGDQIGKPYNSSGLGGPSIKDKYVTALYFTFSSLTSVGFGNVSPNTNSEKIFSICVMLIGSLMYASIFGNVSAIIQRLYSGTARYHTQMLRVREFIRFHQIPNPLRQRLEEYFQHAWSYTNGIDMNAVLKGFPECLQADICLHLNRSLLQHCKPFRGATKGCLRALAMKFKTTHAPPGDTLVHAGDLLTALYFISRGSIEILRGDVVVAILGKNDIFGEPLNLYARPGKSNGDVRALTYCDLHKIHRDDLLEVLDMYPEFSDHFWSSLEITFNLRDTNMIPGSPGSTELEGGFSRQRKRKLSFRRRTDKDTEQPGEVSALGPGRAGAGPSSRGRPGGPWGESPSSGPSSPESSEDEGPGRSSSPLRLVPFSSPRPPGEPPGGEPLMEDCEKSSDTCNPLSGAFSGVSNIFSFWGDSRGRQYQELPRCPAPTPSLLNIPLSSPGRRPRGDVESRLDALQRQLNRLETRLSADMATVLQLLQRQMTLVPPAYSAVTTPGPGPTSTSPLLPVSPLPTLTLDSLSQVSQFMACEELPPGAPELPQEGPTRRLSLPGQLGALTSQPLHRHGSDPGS

Row | SMILES | Emax (Cavia porcellus [1]) | EC50 (Cavia porcellus [3]) | pEC50 (Cavia porcellus [3]) | also measured
1 | O=C(CCCN1CCC2(CC1)C(=O)NCN2c1ccccc1)c1ccc(F)cc1 [SPIPERONE] | 100 ms | – | – | –
2 | CN1CCN(C2=Nc3ccccc3Nc3sc(CO)cc32)CC1 | – | – | – | IC50 [2]: 11.5 µM
3 | COC(=O)C1=CC[C@@H]2CC[C@H]1N2C [METHYLECGONIDINE] | – | – | – | pIC50(uM) ([2]; hek293): -2.23
4 | COc1ccc(CCN2CCC(Nc3nc4ccccc4n3Cc3ccc(F)cc3)CC2)cc1 [ASTEMIZOLE] | – | 0.39 µmol/kg | 3.74 | –
5 | CC(C)NCC(O)c1ccc(NS(C)(=O)=O)cc1 (stereo not given) [SOTALOL] | 97.3 ms | 6.2 µmol/kg | 2.77 | –
6 | CCCCNc1ccc(C(=O)OCCN(C)C)cc1 [TETRACAINE] | 91.5 ms | 9.04 µmol/kg | 2.62 | –
7 | CN1CCC[C@H]1c1cccnc1 [NICOTINE] | – | – | – | pIC50(uM) ([2]; hek293): -2.39
8 | O=C(CCCN1CCC(O)(c2cccc(C(F)(F)F)c2)CC1)c1ccc(F)cc1 [TRIFLUPERIDOL] | 74.7 ms | 7.65 µmol/kg | 2.51 | –
9 | CCCN(CCC)C1CCc2cccc(O)c2C1 (stereo not given) [8-OH-DPAT] | 116.3 ms | 4.57 µmol/kg | 2.95 | –
10 | COc1cc(N)c(Cl)cc1C(=O)NC1CCN(CCCOc2ccc(F)cc2)CC1OC (stereo not given) [CISAPRIDE] | 81.9 ms | 2.12 µmol/kg | 3 | –
11 | O=C(CCCN1CCC(O)(c2ccc(Cl)cc2)CC1)c1ccc(F)cc1 [HALOPERIDOL] | 123.3 ms | 0.88 µmol/kg | 3.48 | –
12 | Oc1ccc(CCN2CCC(Nc3nc4ccccc4n3Cc3ccc(F)cc3)CC2)cc1 [DESMETHEYLASTEMIZOLE] | – | – | – | IC50 [2]: 0.001 µM
13 | CNCCC(Oc1ccccc1OC)c1ccccc1 (stereo not given) [NISOXETINE] | 37.5 ms | – | – | –
14 | C=C[C@H]1C[N@@]2CC[C@H]1C[C@@H]2[C@@H](O)c1ccnc2ccc(OC)cc12 [QUINIDINE] | 78.6 ms | 8.34 µmol/kg | 2.55 | –
15 | Cc1nc2sccn2c(=O)c1CCN1CCC(=C(c2ccc(F)cc2)c2ccc(F)cc2)CC1 [RITANSERIN] | – | 0.19 µmol/kg | 4.05 | Activity (Cavia porcellus [4]): Toxic; Emax (Cavia porcellus [5]): 106.8 ms
16 | CN1CC(=O)N2[C@H](c3ccc4c(c3)OCO4)c3[nH]c4ccccc4c3C[C@@H]2C1=O | – | – | – | IC50 [2]: 100 µM
17 | CCC1(c2ccccc2)C(=O)NC(=O)NC1=O [PHENOBARBITAL] | – | – | – | pIC50(uM) ([2]; HEK293 cells expressing human ERG channel): -3.48
